Laboratory results published in the OligoGym collection.
HELM strings list units from the 5' end as sugar, base in round brackets, then linkage (d deoxyribose, r ribose, m 2'-O-methyl, p phosphodiester). Strings are as the collection lists them; they lack the last nucleoside at the 3' end of the tested compound. [moe] = 2'-O-(2-methoxyethyl) (MOE); [sp] = phosphorothioate linkage; [m5C] = 5-methylcytosine

The substances below were run against ATXN2 (assay: mouse, dose not given). Conditions: ASO.
For “RNA1{[moe](T)[sp].[moe](G)p.[moe](G)p.[moe](T)p.[moe](G)p.[moe](G)p.d(T)[sp].d(G)[sp].d(T)[sp].d(G)[sp].d([m5C])[sp].d(G)[sp].d([m5C])[sp].d(A)[sp].d(T)[sp].d(G)[sp].[moe](T)p.[moe](A)[sp].[moe](G)}$$$$ (last 3' nucleoside missing)”, the 3 h FOB score was 7 score 0-7. Work on “RNA1{[moe](T)[sp].[moe](G)p.[moe]([m5C])p.[moe](T)p.[moe](A)[sp].d(A)[sp].d([m5C])[sp].d(T)[sp].d(G)[sp].d(G)[sp].d(T)[sp].d(T)[sp].d(T)[sp].[moe](G)p.[moe]([m5C])p.[moe]([m5C])[sp].[moe]([m5C])}$$$$ (last 3' nucleoside missing)” yielded a 3 h FOB score of 6 score 0-7. In the case of “RNA1{[moe]([m5C])[sp].[moe](T)p.[moe](G)p.[moe]([m5C])p.d(T)[sp].d(A)[sp].d(A)[sp].d([m5C])[sp].d(T)[sp].d(G)[sp].d(G)[sp].d(T)[sp].d(T)[sp].d(T)[sp].[moe](G)p.[moe]([m5C])p.[moe]([m5C])p.[moe]([m5C])[sp].[moe](T)}$$$$ (last 3' nucleoside missing)”, the 3 h FOB score is reported as 1 score 0-7. Substance “RNA1{[moe](T)[sp].[moe](A)p.[moe](G)p.[moe]([m5C])p.[moe](A)p.d([m5C])[sp].d(T)[sp].d(T)[sp].d(G)[sp].d(G)[sp].d(T)[sp].d(T)[sp].d([m5C])[sp].d(A)[sp].d(A)[sp].[moe](T)p.[moe](T)p.[moe](T)[sp].[moe](T)}$$$$ (last 3' nucleoside missing)” has a 3 h FOB score of 6 score 0-7. In the case of “RNA1{[moe]([m5C])[sp].[moe]([m5C])p.[moe](T)p.[moe](A)p.d(T)[sp].d([m5C])[sp].d(A)[sp].d(T)[sp].d([m5C])[sp].d(A)[sp].d(T)[sp].d(T)[sp].d(T)[sp].d(T)[sp].[moe]([m5C])p.[moe]([m5C])p.[moe](A)p.[moe](G)[sp].[moe](G)}$$$$ (last 3' nucleoside missing)”, the 3 h FOB score is reported as 1.75 score 0-7. Substance “RNA1{[moe](T)[sp].[moe](G)p.[moe](T)p.[moe](T)p.[moe](A)p.d([m5C])[sp].d(T)[sp].d(G)[sp].d(T)[sp].d(T)[sp].d(T)[sp].d([m5C])[sp].d(G)[sp].d(A)[sp].d([m5C])[sp].[moe]([m5C])p.[moe](T)p.[moe]([m5C])[sp].[moe](T)}$$$$ (last 3' nucleoside missing)” has a 3 h FOB score of 6.25 score 0-7. “RNA1{[moe](A)[sp].[moe](T)p.[moe]([m5C])p.[moe](A)p.[moe](G)p.d(T)[sp].d(A)[sp].d(T)[sp].d(T)[sp].d(T)[sp].d(A)[sp].d([m5C])[sp].d(T)[sp].d(A)[sp].d([m5C])[sp].[moe](T)p.[moe](T)p.[moe]([m5C])[sp].[moe](T)}$$$$ (last 3' nucleoside missing)” was tested, and the 3 h FOB score was 2.75 score 0-7. For “RNA1{[moe](G)[sp].[moe](T)p.[moe](G)p.[moe](G)p.[moe](T)p.d(G)[sp].d(T)[sp].d(G)[sp].d([m5C])[sp].d(G)[sp].d([m5C])[sp].d(A)[sp].d(T)[sp].d(G)[sp].d(T)[sp].[moe](A)p.[moe](G)p.[moe](A)[sp].[moe]([m5C])}$$$$ (last 3' nucleoside missing)”, the 3 h FOB score was 5.5 score 0-7. Work on “RNA1{[moe](A)[sp].[moe](G)p.[moe](T)p.[moe](G)p.[moe](T)p.d(T)[sp].d(T)[sp].d(G)[sp].d(G)[sp].d(G)[sp].d(A)[sp].d(T)[sp].d(G)[sp].d([m5C])[sp].d(T)[sp].[moe](T)p.[moe]([m5C])p.[moe](A)[sp].[moe](G)}$$$$ (last 3' nucleoside missing)” yielded a 3 h FOB score of 6.5 score 0-7. In the case of “RNA1{[moe](T)[sp].[moe]([m5C])p.[moe](T)p.[moe](G)p.[moe](T)[sp].d(A)[sp].d([m5C])[sp].d(T)[sp].d(T)[sp].d(T)[sp].d(T)[sp].d([m5C])[sp].d(T)[sp].d([m5C])[sp].d(A)[sp].[moe](T)p.[moe](G)p.[moe](T)[sp].[moe](G)}$$$$ (last 3' nucleoside missing)”, the 3 h FOB score is reported as 0 score 0-7. Substance “RNA1{[moe](G)[sp].[moe](A)p.[moe](T)p.[moe](T)p.[moe]([m5C])p.d(T)[sp].d(G)[sp].d(T)[sp].d(A)[sp].d([m5C])[sp].d(T)[sp].d(T)[sp].d(T)[sp].d(T)[sp].d([m5C])[sp].[moe](T)p.[moe]([m5C])p.[moe](A)[sp].[moe](T)}$$$$ (last 3' nucleoside missing)” has a 3 h FOB score of 4.5 score 0-7. Substance “RNA1{[moe](T)[sp].[moe](T)p.[moe](G)p.[moe](T)p.[moe](T)p.d(A)[sp].d([m5C])[sp].d(T)[sp].d(G)[sp].d(T)[sp].d(T)[sp].d(T)[sp].d([m5C])[sp].d(G)[sp].d(A)[sp].[moe]([m5C])p.[moe]([m5C])p.[moe](T)[sp].[moe]([m5C])}$$$$ (last 3' nucleoside missing)” has a 3 h FOB score of 4.25 score 0-7. For “RNA1{[moe](A)[sp].[moe](T)p.[moe](T)p.[moe]([m5C])p.[moe](T)p.d(G)[sp].d(T)[sp].d(A)[sp].d([m5C])[sp].d(T)[sp].d(T)[sp].d(T)[sp].d(T)[sp].d([m5C])[sp].d(T)[sp].[moe]([m5C])p.[moe](A)p.[moe](T)[sp].[moe](G)}$$$$ (last 3' nucleoside missing)”, the 3 h FOB score was 1 score 0-7. “RNA1{[moe](T)[sp].[moe](G)p.[moe](T)p.[moe](A)p.[moe]([m5C])p.[moe](T)p.d(T)[sp].d([m5C])[sp].d(A)[sp].d([m5C])[sp].d(A)[sp].d(T)[sp].d(T)[sp].d(T)[sp].d(G)[sp].d(G)[sp].[moe](A)p.[moe](G)[sp].[moe]([m5C])}$$$$ (last 3' nucleoside missing)” showed a 3 h FOB score of 2.5 score 0-7. In the case of “RNA1{[moe](A)[sp].[moe](T)p.[moe](A)p.[moe]([m5C])p.[moe](G)p.d([m5C])[sp].d(G)[sp].d(G)[sp].d(T)[sp].d(G)[sp].d(A)[sp].d(A)[sp].d(T)[sp].d(T)[sp].d([m5C])[sp].[moe](T)p.[moe](G)p.[moe](T)[sp].[moe]([m5C])}$$$$ (last 3' nucleoside missing)”, the 3 h FOB score is reported as 1 score 0-7. “RNA1{[moe](G)[sp].[moe](G)p.[moe](A)p.[moe](T)p.[moe](T)p.d(G)[sp].d(T)[sp].d(T)[sp].d(T)[sp].d(T)[sp].d([m5C])[sp].d(T)[sp].d(T)[sp].d([m5C])[sp].d(A)[sp].[moe](T)p.[moe](T)p.[moe](A)[sp].[moe](T)}$$$$ (last 3' nucleoside missing)” gave a 3 h FOB score of 0 score 0-7. With “RNA1{[moe]([m5C])[sp].[moe](A)p.[moe](G)p.[moe]([m5C])p.[moe](T)p.d([m5C])[sp].d(T)[sp].d(G)[sp].d(T)[sp].d(T)[sp].d([m5C])[sp].d(G)[sp].d(A)[sp].d(T)[sp].d(G)[sp].[moe]([m5C])p.[moe](A)p.[moe](G)[sp].[moe](G)}$$$$ (last 3' nucleoside missing)” the 3 h FOB score was 6.25 score 0-7. “RNA1{[moe](A)[sp].[moe](G)p.[moe](T)p.[moe](T)p.[moe]([m5C])p.d(A)[sp].d([m5C])[sp].d([m5C])[sp].d(T)[sp].d(G)[sp].d([m5C])[sp].d(A)[sp].d(T)[sp].d([m5C])[sp].d([m5C])[sp].[moe]([m5C])p.[moe](A)p.[moe](G)[sp].[moe](G)}$$$$ (last 3' nucleoside missing)” showed a 3 h FOB score of 5.5 score 0-7. “RNA1{[moe](G)[sp].[moe](T)p.[moe](T)p.[moe]([m5C])p.[moe](A)p.d(T)[sp].d(G)[sp].d(A)[sp].d([m5C])[sp].d(T)[sp].d(T)[sp].d(T)[sp].d([m5C])[sp].d(A)[sp].d(A)[sp].[moe](G)p.[moe](G)p.[moe](G)[sp].[moe](T)}$$$$ (last 3' nucleoside missing)” was tested, and the 3 h FOB score was 2 score 0-7.
